Assay results reported in ChEMBL document CHEMBL1671782, “Cationic surfactants derived from lysine: effects of their structure and charge type on antimicrobial and hemolytic activities” (J Med Chem, 2011).
Values after ≈ are worked out from the molar mass of the structure shown. Active and inactive are the calls of the source. The rule behind the calls is not given here. Peptide text beside a SMILES is read from it. * marks the point of attachment. Lauroyl = CCCCCCCCCCCC(=O)*

How the values were obtained:
Bacillus subtilis = assay: microbe, parasite or virus in culture; details: ATCC 6633, 24 h
Description: Antimicrobial activity against Bacillus subtilis ATCC 6633 assessed as inhibition of visible growth after 24 hrs at pH 7.4

[1] = tested on: Staphylococcus epidermidis; assay: microbe, parasite or virus in culture; details: ATCC 155-1, 24 h
Description: Antimicrobial activity against Staphylococcus epidermidis ATCC 155-1 assessed as inhibition of visible growth after 24 hrs at pH 7.4

Micrococcus luteus [2] = assay: microbe, parasite or virus in culture; details: ATCC 9341, 24 h
Description: Antimicrobial activity against Micrococcus luteus ATCC 9341 assessed as inhibition of visible growth after 24 hrs at pH 7.4

Pseudomonas aeruginosa = assay: microbe, parasite or virus in culture; details: ATCC 9721, 24 h
Description: Antimicrobial activity against Pseudomonas aeruginosa ATCC 9721 assessed as inhibition of visible growth after 24 hrs at pH 7.4

in vitro = details: human, erythrocytes
Description: Toxicity in human erythrocytes assessed as hemolytic activity measured after 10 mins shaking

Candida albicans = assay: microbe, parasite or virus in culture; details: ATCC 10231, 24 h
Description: Antimicrobial activity against Candida albicans ATCC 10231 assessed as inhibition of visible growth after 24 hrs at pH 7.4

Klebsiella pneumoniae [3] = assay: microbe, parasite or virus in culture; details: ATCC 9721, 24 h
Description: Antimicrobial activity against Klebsiella pneumoniae ATCC 9721 assessed as inhibition of visible growth after 24 hrs at pH 7.4

Staphylococcus aureus [4] = assay: microbe, parasite or virus in culture; details: ATCC 25178, 24 h
Description: Antimicrobial activity against Staphylococcus aureus ATCC 25178 assessed as inhibition of visible growth after 24 hrs at pH 7.4

Escherichia coli [5] = assay: microbe, parasite or virus in culture; details: ATCC 27325, 24 h
Description: (§1) Antimicrobial activity against Escherichia coli ATCC 27325 assessed as inhibition of visible growth after 24 hrs at pH 7.4

Klebsiella pneumoniae [6] = assay: Antimicrobial activity against Klebsiella pneumoniae ATCC 9721 at 250 ug/ml at pH 7.4; type: functional, organism-based
Micrococcus luteus [7] = assay: Antimicrobial activity against Micrococcus luteus ATCC 9341 at 250 ug/ml at pH 7.4; type: functional, organism-based
Staphylococcus aureus [8] = assay: Antimicrobial activity against Staphylococcus aureus ATCC 25178 at 250 ug/ml at pH 7.4; type: functional, organism-based
Escherichia coli [9] = details: ATCC 27325
Description: as §1

Description for physchem: Dissociation constant, pKa of the compound

MIC (Bacillus subtilis) | MIC [1] | MIC (Micrococcus luteus [2]) | MIC (Pseudomonas aeruginosa) | HC50 at 10 min (in vitro) | pKa (physchem) | MIC (Candida albicans) | MIC (Klebsiella pneumoniae [3]) | MIC (Staphylococcus aureus [4]) | MIC (Escherichia coli [5]) | SMILES | Activity (Klebsiella pneumoniae [6]) | Activity (Micrococcus luteus [7]) | Activity (Staphylococcus aureus [8]) | Activity (Escherichia coli [9])
308 µM (≈ 227 µg/mL) | 38 µM (≈ 28 µg/mL) |  |  | 116 µM |  |  |  |  |  | CCCCCCCCCCCC(=O)NCCCC[C@H](N)C(=O)NCCCCCCNC(=O)[C@@H](N)CCCCNC(=O)CCCCCCCCCCC | inactive | inactive | inactive | 
142 µM (≈ 109 µg/mL) | 142 µM (≈ 109 µg/mL) | 142 µM (≈ 109 µg/mL) | 142 µM (≈ 109 µg/mL) | 12 µM |  | 285 µM (≈ 218 µg/mL) |  |  |  | CCCCCCCCCCCC(=O)NCCCC[C@H](N)C(=O)NCCCCNCCCNC(=O)[C@@H](N)CCCCNC(=O)CCCCCCCCCCC | inactive |  | inactive | 
16 µM | 16 µM | 67 µM |  | 11 µM |  | 67 µM |  | 67 µM |  | CCCCCCCCCCCC(=O)NCCCC[C@@H](C(=O)NCCCCCCNC(=O)[C@H](CCCCNC(=O)CCCCCCCCCCC)[N+](C)(C)C)[N+](C)(C)C | inactive |  |  | 
308 µM (≈ 227 µg/mL) | 77 µM (≈ 56.8 µg/mL) | 154 µM (≈ 114 µg/mL) |  | 475 µM |  |  |  | 154 µM (≈ 114 µg/mL) |  | CCCCCCCCCCCC(=O)N[C@@H](CCCCN)C(=O)NCCCCCCNC(=O)[C@H](CCCCN)NC(=O)CCCCCCCCCCC | inactive |  |  | inactive

Second part, the molecule before the results:

SMILES | MIC (Bacillus subtilis) | MIC [1] | MIC (Micrococcus luteus [2]) | MIC (Pseudomonas aeruginosa) | HC50 at 10 min (in vitro) | pKa (physchem) | MIC (Candida albicans) | MIC (Klebsiella pneumoniae [3]) | MIC (Staphylococcus aureus [4]) | MIC (Escherichia coli [5]) | Activity (Klebsiella pneumoniae [6]) | Activity (Micrococcus luteus [7]) | Activity (Staphylococcus aureus [8]) | Activity (Escherichia coli [9])
CCCCCCCCCCCC(=O)N[C@@H](CCCNC(=N)N)C(=O)N[C@@H](CCCCN)C(=O)OC (Lauroyl-Arg-Lys-OMe) | 28 µM (≈ 14 µg/mL) | 218 µM (≈ 109 µg/mL) | 28 µM (≈ 14 µg/mL) | 218 µM (≈ 109 µg/mL) | 1350 µM | 10 | 218 µM (≈ 109 µg/mL) | 218 µM (≈ 109 µg/mL) | 54 µM (≈ 26.9 µg/mL) | 218 µM (≈ 109 µg/mL) |  |  |  | 
CCCCCCCCCCCC(=O)NCCCC[C@H](N)C(=O)OC | 331 µM (≈ 113 µg/mL) | 166 µM (≈ 56.9 µg/mL) | 331 µM (≈ 113 µg/mL) |  | 391 µM | 10 | 166 µM (≈ 56.9 µg/mL) | 331 µM (≈ 113 µg/mL) | 331 µM (≈ 113 µg/mL) | 166 µM (≈ 56.9 µg/mL) |  |  |  | 
CCCCCCCCCCCC(=O)N[C@@H](CCCNC(=N)N)C(=O)NCCCC[C@H](N)C(=O)OC | 218 µM (≈ 109 µg/mL) | 436 µM (≈ 217 µg/mL) | 436 µM (≈ 217 µg/mL) |  | 791 µM | 10 | 436 µM (≈ 217 µg/mL) |  | 436 µM (≈ 217 µg/mL) |  | inactive |  |  | 
CCCCCCCCCCCC(=O)N[C@@H](CCCCN)C(=O)OC | 331 µM (≈ 113 µg/mL) | 83 µM (≈ 28.4 µg/mL) | 83 µM (≈ 28.4 µg/mL) | 331 µM (≈ 113 µg/mL) | 199 µM | 10 | 166 µM (≈ 56.9 µg/mL) | 331 µM (≈ 113 µg/mL) | 166 µM (≈ 56.9 µg/mL) | 331 µM (≈ 113 µg/mL) |  |  |  | 
